From PubChem BioAssay AID248 (DTP/NCI, 2004)
“And” between values parts separate entries of the source, which are not always exact repeats. Equal values may be shown once. Toxic doses and inconclusive results are not listed. Cut-off read from the data, not from the text of the source: active = T/C of 150% or more; inactive = T/C below 125%. Square brackets hold non-standard residues; d marks the D form. Peptide text beside a SMILES is read from it. * marks the point of attachment. ξ: configuration not given here. ξF = NC(Cc1ccccc1)C(=O)O; Cbz = O=C(OCc1ccccc1)*

System: L1210 leukemia ip in BDF1 mice, survival T/C
Assay: NCI In Vivo Anticancer Drug Screen. Data for tumor model L1210 Leukemia (intraperitoneal) in B6D2F1 (BDF1) mice
Settings: endpoint: mean survival time, higher = longer survival
Outline: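 Tumor cells were implanted, animals were treated, and survival was followed. The result divides the treated measurement by the vehicle-control measurement.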

[1] = dose: 100.0 mg/kg/injection, schedule: Q01DX009 (ip), vehicle: saline with Tween-80
[2] = dose: 200.0 mg/kg/injection, schedule: Q01DX009 (ip), vehicle: saline with Tween-80
[3] = dose: 100.0 mg/kg/injection, schedule: Q01DX001 (ip), vehicle: saline
[4] = dose: 200.0 mg/kg/injection, schedule: Q01DX001 (ip), vehicle: saline
[5] = dose: 400.0 mg/kg/injection, schedule: Q01DX001 (ip), vehicle: saline
[6] = dose: 100.0 mg/kg/injection, schedule: Q04DX003 (ip), vehicle: Klucel (hydroxypropylcellulose) (HPC)
[7] = dose: 200.0 mg/kg/injection, schedule: Q04DX003 (ip), vehicle: Klucel (hydroxypropylcellulose) (HPC)
[8] = dose: 400.0 mg/kg/injection, schedule: Q04DX003 (ip), vehicle: Klucel (hydroxypropylcellulose) (HPC)
[9] = dose: 100.0 mg/kg/injection, schedule: Q01DX001 (ip), vehicle: carboxymethylcellulose (CMC)
[10] = dose: 200.0 mg/kg/injection, schedule: Q01DX001 (ip), vehicle: carboxymethylcellulose (CMC)
[11] = dose: 400.0 mg/kg/injection, schedule: Q01DX001 (ip), vehicle: carboxymethylcellulose (CMC)
[12] = dose: 100.0 mg/kg/injection, schedule: Q01DX001 (ip), vehicle: Klucel (hydroxypropylcellulose) (HPC)
[13] = dose: 400.0 mg/kg/injection, schedule: Q01DX009 (ip), vehicle: saline with Tween-80
[14] = dose: 100.0 mg/kg/injection, schedule: Q04DX003 (ip), vehicle: saline with Tween-80
[15] = dose: 200.0 mg/kg/injection, schedule: Q04DX003 (ip), vehicle: saline with Tween-80
[16] = dose: 400.0 mg/kg/injection, schedule: Q04DX003 (ip), vehicle: saline with Tween-80
[17] = dose: 100.0 mg/kg/injection, schedule: Q01DX009 (ip), vehicle: Klucel (hydroxypropylcellulose) (HPC)
[18] = dose: 200.0 mg/kg/injection, schedule: Q01DX009 (ip), vehicle: Klucel (hydroxypropylcellulose) (HPC)

Measured: T/C

CCCCNC(=O)Oc1ccc(C(=O)OCCC)cc1
inactive: dose: 50.0 mg/kg/injection, schedule: Q01DX009 (ip), vehicle: saline with Tween-80 102 % of control and 106 % of control | dose: 100.0 mg/kg/injection, schedule: Q01DX009 (ip), vehicle: other 110 % of control and 86 % of control | [1] 103 % of control and 104 % of control | dose: 100.0 mg/kg/injection, schedule: Q04DX002 (ip), vehicle: other 100 % of control and 101 % of control | dose: 200.0 mg/kg/injection, schedule: Q01DX009 (ip), vehicle: other 89 % of control | [2] 96 % of control and 103 % of control | dose: 200.0 mg/kg/injection, schedule: Q04DX002 (ip), vehicle: other 93 % of control and 105 % of control | dose: 400.0 mg/kg/injection, schedule: Q01DX009 (ip), vehicle: other 93 % of control and 90 % of control | dose: 400.0 mg/kg/injection, schedule: Q04DX002 (ip), vehicle: other 96 % of control and 92 % of control

CCOc1ccc(N)c([N+](=O)[O-])c1
inactive: [3] 100 % of control | [4] 107 % of control | [5] 105 % of control

O=C1CC2(CCCCC2)C(=O)N1Nc1ccccc1
inactive: [6] 105 % of control | [7] 98 % of control | [8] 102 % of control

Cn1ncc2c(N)ncnc21
inactive: dose: 6.0 mg/kg/injection, schedule: Q01DX015 (ip), vehicle: carboxymethylcellulose (CMC) 108 % of control | dose: 12.0 mg/kg/injection, schedule: Q01DX015 (ip), vehicle: carboxymethylcellulose (CMC) 101 % of control | dose: 12.5 mg/kg/injection, schedule: Q01DX009 (ip), vehicle: Klucel (hydroxypropylcellulose) (HPC) 102 % of control | dose: 25.0 mg/kg/injection, schedule: Q01DX009 (ip), vehicle: Klucel (hydroxypropylcellulose) (HPC) 107 % of control | dose: 25.0 mg/kg/injection, schedule: Q01DX015 (ip), vehicle: carboxymethylcellulose (CMC) 108 % of control | dose: 50.0 mg/kg/injection, schedule: Q01DX009 (ip), vehicle: Klucel (hydroxypropylcellulose) (HPC) 91 % of control | dose: 50.0 mg/kg/injection, schedule: Q01DX015 (ip), vehicle: carboxymethylcellulose (CMC) 101 % of control | [9] 103 % of control | [10] 98 % of control | [11] 106 % of control

COC1=C2CCCCC2=[N+]2CCc3ccccc3C2C1 (stereo not drawn)
inactive: [12] 93 % of control

CC1CCCC1=O (stereo not drawn)
inactive: dose: 50.0 mg/kg/injection, schedule: Q01DX001 (ip), vehicle: saline 96 % of control | [3] 93 % of control | [4] 93 % of control | [5] 93 % of control

CC(=O)Nc1c([N+](=O)[O-])cc2c3c(cccc13)C=C2
inactive: [2] 96 % of control | [13] 96 % of control

COC(=O)c1ccc(N(C)CC/C(CN)=N/NC(N)=O)cc1
inactive: [9] 96 % of control | [10] 96 % of control | [11] 102 % of control

CN(C)CC/C(=N\Nc1ccc([N+](=O)[O-])cc1[N+](=O)[O-])c1ccccc1
inactive: dose: 100.0 mg/kg/injection, schedule: Q01DX001 (ip), vehicle: saline with Tween-80 94 % of control | dose: 200.0 mg/kg/injection, schedule: Q01DX001 (ip), vehicle: saline with Tween-80 92 % of control | dose: 400.0 mg/kg/injection, schedule: Q01DX001 (ip), vehicle: saline with Tween-80 92 % of control

Nc1ncc(Br)cn1
inactive: [14] 105 % of control | [15] 100 % of control | [16] 102 % of control

C/C(=C1/c2ccccc2-c2n[nH]c(C)c21)S(=O)(=O)O
inactive: [1] 95 % of control | [14] 94 % of control | [2] 88 % of control | [15] 105 % of control | [13] 95 % of control | [16] 91 % of control

O=C(O)Cc1ccc(I)cc1
inactive: dose: 100.0 mg/kg/injection, schedule: Q04DX003 (ip), vehicle: gum acacia 98 % of control | dose: 200.0 mg/kg/injection, schedule: Q04DX003 (ip), vehicle: gum acacia 96 % of control | dose: 400.0 mg/kg/injection, schedule: Q04DX003 (ip), vehicle: gum acacia 94 % of control

CC(C)(C)c1cc(/C=N/n2c(-c3ccccc3)nc3ccccc3c2=O)cc(C(C)(C)C)c1O
inactive: [12] 89 % of control | [17] 89 % of control and 91 % of control | dose: 100.0 mg/kg/injection, schedule: Q04DX002 (ip), vehicle: Klucel (hydroxypropylcellulose) (HPC) 95 % of control | dose: 200.0 mg/kg/injection, schedule: Q01DX001 (ip), vehicle: Klucel (hydroxypropylcellulose) (HPC) 89 % of control | [18] 95 % of control and 91 % of control | dose: 200.0 mg/kg/injection, schedule: Q04DX002 (ip), vehicle: Klucel (hydroxypropylcellulose) (HPC) 98 % of control | dose: 400.0 mg/kg/injection, schedule: Q01DX001 (ip), vehicle: Klucel (hydroxypropylcellulose) (HPC) 93 % of control | dose: 400.0 mg/kg/injection, schedule: Q04DX002 (ip), vehicle: Klucel (hydroxypropylcellulose) (HPC) 97 % of control and 100 % of control

CCN=C=NCCCN(C)C
inactive: dose: 20.0 mg/kg/injection, schedule: Q01DX009 (ip), vehicle: saline 107 % of control | dose: 20.0 mg/kg/injection, schedule: Q04DX003 (ip), vehicle: saline 100 % of control | dose: 40.0 mg/kg/injection, schedule: Q01DX009 (ip), vehicle: saline 114 % of control | dose: 40.0 mg/kg/injection, schedule: Q04DX003 (ip), vehicle: saline 109 % of control | dose: 80.0 mg/kg/injection, schedule: Q04DX003 (ip), vehicle: saline 112 % of control

COC(=O)C(Cc1ccccc1)NC(=O)CNC(=O)CNC(=O)OCc1ccccc1 (stereo not drawn) (Cbz-Gly-Gly-[ξF]-OMe)
inactive: dose: 100.0 mg/kg/injection, schedule: Q04DX003 (ip), vehicle: other 98 % of control | dose: 200.0 mg/kg/injection, schedule: Q04DX003 (ip), vehicle: other 97 % of control | dose: 400.0 mg/kg/injection, schedule: Q04DX003 (ip), vehicle: other 106 % of control

CCOC(=O)C(C)Nc1ccccc1 (stereo not drawn)
inactive: [17] 100 % of control | [6] 103 % of control | [18] 104 % of control | [7] 118 % of control | dose: 400.0 mg/kg/injection, schedule: Q01DX009 (ip), vehicle: Klucel (hydroxypropylcellulose) (HPC) 98 % of control | [8] 98 % of control

C=C(Br)S(=O)(=O)CC
inactive: dose: 6.25 mg/kg/injection, schedule: Q04DX002 (ip), vehicle: saline 101 % of control | dose: 12.5 mg/kg/injection, schedule: Q04DX002 (ip), vehicle: saline 90 % of control | dose: 25.0 mg/kg/injection, schedule: Q04DX002 (ip), vehicle: Klucel (hydroxypropylcellulose) (HPC) 101 % of control | dose: 25.0 mg/kg/injection, schedule: Q04DX002 (ip), vehicle: saline 111 % of control

O=P1(c2ccccc2)OCCO1
inactive: dose: 25.0 mg/kg/injection, schedule: Q01DX009 (ip), vehicle: carboxymethylcellulose (CMC) 97 % of control and 98 % of control | dose: 50.0 mg/kg/injection, schedule: Q01DX009 (ip), vehicle: carboxymethylcellulose (CMC) 100 % of control and 101 % of control | dose: 100.0 mg/kg/injection, schedule: Q01DX009 (ip), vehicle: carboxymethylcellulose (CMC) 94 % of control and 100 % of control and 101 % of control | dose: 100.0 mg/kg/injection, schedule: Q04DX002 (ip), vehicle: carboxymethylcellulose (CMC) 93 % of control and 102 % of control | dose: 100.0 mg/kg/injection, schedule: Q04DX003 (ip), vehicle: carboxymethylcellulose (CMC) 103 % of control | dose: 200.0 mg/kg/injection, schedule: Q04DX002 (ip), vehicle: carboxymethylcellulose (CMC) 96 % of control | dose: 200.0 mg/kg/injection, schedule: Q04DX003 (ip), vehicle: carboxymethylcellulose (CMC) 107 % of control | dose: 400.0 mg/kg/injection, schedule: Q04DX002 (ip), vehicle: carboxymethylcellulose (CMC) 96 % of control | dose: 400.0 mg/kg/injection, schedule: Q04DX003 (ip), vehicle: carboxymethylcellulose (CMC) 97 % of control

Cc1ccc(S(=O)(=O)Nc2ccc([N+](=O)[O-])cc2OS(=O)(=O)c2ccc(C)cc2)cc1
inactive: dose: 100.0 mg/kg/injection, schedule: Q01DX009 (ip), vehicle: saline 97 % of control | dose: 200.0 mg/kg/injection, schedule: Q01DX009 (ip), vehicle: saline 101 % of control | dose: 400.0 mg/kg/injection, schedule: Q01DX009 (ip), vehicle: saline 95 % of control
